Laboratory results as given in article PMC4912613, “A broad analysis of resistance development in the malaria parasite” (Nature Communications, 2016).
Read-outs that look alike come from different tables or passages of the source.

Assays:
P. falciparum [1] = test system: P. falciparum; design: method as in PMID 26542470; conditions: known rate of action; cited from earlier work
P. falciparum [2] = test: Rate of killing (parasite viability) assay; format: cell-based, Plasmodium falciparum; conditions: profile compared with chloroquine, pyrimethamine, atovaquone; 48 h treatment
Description: To identify whether selection success could be predicted by compound speed of action, and to gain a greater insight into the potential mechanisms of action, assays were performed to test the killing rate (Supplementary Data 1)[33]. To quantify the killing rate, viability time-course profiles for each compound were compared with antimalarials known to have fast (chloroquine), moderate (pyrimethamine) or slow (atovaquone) rate of action. These rates were then compared with other compound characteristics, including cross-resistance profile, selection success, potency and structural characteristics to identify any possible trends. […] One compound's rate of killing, MMV666080, was unidentifiable due to compound availability. No correlation was seen between compound structure and speed of action. Additionally, there was no correlation found between killing rate and compound potency against 3D7, nor between potency and selection success (Supplementary Fig. 2).
Rate of killing was determined for each compound following a previously described methodology, which uses the invasion of fresh erythrocytes as surrogate of parasite viability. Briefly, parasites were treated with compounds for 48 h. Compound was washed out and fresh-labelled erythrocytes added to the treated parasites. Double stained erythrocytes (RBC label plus parasite DNA label) were quantified and per cent of survival determined.

[3] = test system: TM90C2A (DHFR, folate pathway; compared with 3D7); test: Cross-resistance EC50 assay, TM90C2A; format: cell-based; conditions: Plasmodium falciparum, 48 h, read-out: TM90C2A (3D7 Parent) Average EC50
Source text: (§1) To evaluate potential overlapping activity against known antimalarial drug targets, we performed dose-response studies with each compound against our assembled set of drug-resistant lines and their corresponding parents, in an asexual blood stage proliferation assay (Table 1). Comparisons were made to the drug-sensitive strain 3D7 when a parent was unavailable (TM90C2A, W2 and Dd2). As laboratories conducted EC50 assays with different strains and protocols, all comparisons were made between assays from the same laboratory and under the same assay conditions. Compounds displaying >5-fold EC50 shifts relative to the parent or sensitive strain were flagged as having potentially non-novel targets. Average fold shifts per strain ranged from 0.82 to 2.34, with a median of 1.23 indicating there was not common resistance to any one resistant clone. No resistance patterns were observed when classifying the compounds based on chemical structure, but this was not surprising given the diversity of compounds chosen. On the other hand, given that these confirmed compounds were derived from larger unconfirmed hit lists to which some filtration criteria may have been applied (for example, elimination of obvious dihydrofolate reductase inhibitors[32]), some[10][11][12][13] pre-existing bias may exist in the set.
(§2) The 48-h assay was carried out in a 96-well format following standard methods using the ^3H-hypoxanthine incorporation assay. The raw EC50 values corresponding to this assay can be found in Supplementary Data 3. Briefly, this assay relies on the parasite incorporation of labelled hypoxanthine that is proportional to P. falciparum growth. A culture of parasitized RBCs (0.5% parasitemia with a percentage of ring stage higher than 70% of total parasitemia, 2.0% haematocrit) in RPMI-1640, […] and 5 μM hypoxanthine was exposed to drug serial dilutions. Plates were incubated for 24 h at 37 °C, 5% CO2, 5% O2 and 90% N2. After 24 h of incubation, ^3H-hypoxanthine was added and plates were incubated for an additional 24-h period. After that, parasites were harvested on a glass fibre filter using a TOMTEC Cell Harvester 96. Filters were dried and melt-on scintillator sheets were used to determine the incorporation of ^3H-hypoxanthine. Radioactivity was measured using a microbeta counter. Data were normalized using the incorporation of the positive (parasitized RBCs without drug) and negative (same culture with artesunate at 2 μM) controls. All assays were conducted in triplicate using three independently grown cultures, and EC50 values were determined using the XLfit add-in module for Excel (version 2.3.1) from Grafit (version 5.3.1.3), where parameter h is the assay hill slope, x is the compound concentration and y is the inhibition of growth effect. The XLfit equation is: […]
EC50 values for each strain were compared with those of the corresponding parent strain to determine fold-shift changes and identify resistance. To minimize the cause variance between assays, all comparisons were conducted between strains assayed under identical conditions. A one-way ANOVA followed by a Dunnet's post-test was conducted in GraphPad Prism to identify significant changes between the parent and resistant strain.

W2 = test: Cross-resistance EC50 assay, W2 parent; format: cell-based, Plasmodium falciparum; conditions: Plasmodium falciparum, 48 h, read-out: W2F6 (PARENT) Average EC50
Source text: (§3) Multidrug resistance alleles, including mutations in P. falciparum chloroquine resistance transporter (pfcrt) and P. falciparum multi-drug resistance transporter 1 (pfmdr1) are very common in field isolates. Therefore, we sought to assess the degree to which pre-existing resistance alleles would contribute to a loss of potency for this diverse collection of small molecule compounds. Fifteen clones derived from three main parent lines were chosen to maximize diversity in mutated pathways and genetic backgrounds, thus representing the variety of resistance seen in the field: 3D7 (ref. [23]), W2 (ref. [24]) or Dd2 (ref. [25]). The 3D7 line originates from the clone of a Netherlands clinical isolate strain[23][26] and is generally considered to be drug sensitive, though it does convey resistance to sulfadoxine. Conversely, W2 (ref. [24], [27]) and Dd2 (ref. [25]) are multi-drug-resistant lines originating from the Indochina III/CDC isolate, which contain point mutations in pfcrt as well as amplifications in pfmdr1 and GTP cyclohydrolase.
as §1, §2
(§4) Alternatively, a SYBR Green-based proliferation approach was used for the 72-h assay, as previously described. […]

3D7 = test: Cross-resistance EC50 assay, 3D7 parent / sensitive strain; format: cell-based; conditions: Plasmodium falciparum, hypoxanthine 48-hour assay, synchronized parasites, 96-well format
Source text: as §3, §1, §2, §4

[4] = test system: P. berghei exoerythrocytic forms; test: Liver-stage P. berghei hepatocyte invasion and development assay (luminescence, HepG2); format: cell-based, Plasmodium berghei; conditions: Plasmodium berghei, HepG2, text values; read-out: Liver stage EC50 (PfLuc EC50)
Source text: (§5) As drugs that eliminate multiple stages of the parasite lifecycle will be critical components in global efforts to eliminate malaria, we were interested in knowing whether the compounds in our study had additional activities against either the liver and/or transmission stages of the parasite lifecycle. To determine this, we first evaluated the compounds in additional phenotypic assays. The first assay was a P. berghei hepatocyte invasion and development assay, which predicts causal prophylactic activity. Hepatocyte toxicity was additionally tested to identify false-positive activity in the liver stage due to host-cell toxicity. Assays were executed in duplicate using a 12-point EC50 curve at starting concentrations of 5 μM or 50 μM (Supplementary Table 1).
(§6) Liver-stage activity was determined by pretreating hepatic human cells (HepG2) for 2 h with compound in 1,536-well plates infected with freshly dissected P. berghei sporozoites. After 48 h of incubation, the viability of P. berghei exoerythrocytic forms was measured by luminescence reaction light output using BrightGlo (Promega). Varying levels of compound concentration were used (5 μM or 50 μM) due to the stock concentration supplied.

Hepatocyte toxicity = format: cell-based, human; conditions: human; read-out: HepG2 EC50 (hepatocyte toxicity)
Source text: as §5, §6

[5] = test system: Stage 5 gametocytes from P. falciparum NF54; test: Late-stage (stage V) gametocyte survival assay, MitoTracker; format: cell-based, Plasmodium falciparum; conditions: Plasmodium falciparum; P. falciparum NF54, 72 h; read-out: Stage 5 Gametocyte EC50
Description: The second assay was a late-stage (stage V) gametocyte survival assay, which predicts transmission-blocking activity. […] Positive and negative control compounds included puromycin (0.61±0.11 μM) and atovaquone (> 12.50 μM), respectively.
To test sexual-stage activity, compounds were tested against late-stage gametocytes using a MitoTracker fluorescent-based assay. Specifically, synchronized stage V gametocytes were incubated with compound for 72 h. MitoTracker Red CMXRos (Life Technologies) was added to each well (final concentration: 500 nM) together with saponin to lyse the RBCs. Each plate was then imaged with an Operetta High Content Imaging System (Perkin Elmer) for fluorescence (590–640 nm). Varying levels of compound concentration were used (1.25 μM or 12.5 μM) due to the stock concentration supplied.
The gametocytocidal activity was measured using high-content image analysis software (Harmony, Perkin Elmer). The readout was based on number of metabolically active gametocytes per well.

[6] = test system: MMV026596-selected cultures (parental line 3D7); test: EC50 on cultures selected with MMV026596; format: cell-based, Plasmodium falciparum; conditions: hypersensitivity of cultures after 100 days of MMV026596 selection
Source text: While we found an overall lack of pre-existing resistance, analysing the onset of resistance was critical, as compounds resulting in rapid resistance are not ideal for clinical development. We therefore sought to create drug-resistant parasites using a variety of different selection methods. We implemented either a high-dose method or a ramp-up/pulse method for our in vitro selections. Two of the 50 compounds—MMV028895 and MMV665824—were removed from the selection study during experimentation. […] Out of the remaining 48 compounds, resistant parasites were obtained for 23 (Supplementary Data 1). As each selection was performed in triplicate with three independent cultures, we succeeded in generating a total of 66 resistant cultures. Parasites resistant to MMV026596 were not obtained despite 100 days of selection, but the cultures acquired hypersensitivity to mefloquine with a 10-fold reduction in EC50 compared with its parental line, 3D7. For the remaining 24 compounds, acquisition of resistant parasites was unsuccessful despite numerous attempts over an extensive period of time.

**Q.** With `CCc1nc(N)nc(N)c1-c1ccc(Cl)cc1` [pyrimethamine] as the compound, how does the “rate of action of comparator antimalarials” value (P. falciparum [1]) read?
**A.** moderate

**Q.** Which “Killing Rate” value (P. falciparum [2]) does the source give for `Cn1c(C(=O)c2cccc3ccccc23)nc2ccccc21` [MMV665824] here?
**A.** ATQ (slow)

**Q.** What does the source list for `COc1ccc(NC(=O)N2CCCCN3[C@H](CO)[C@H](c4ccc(C#Cc5ccccc5)cc4)[C@@H]3C2)cc1` [BRD3444]?
**A.** EC50 [3]: 37 nM; EC50 (W2): 31 nM; EC50 (3D7; strain 3D7 (parent), read-out: 3D7 (PARENT) Average EC50): 45 nM; EC50 (3D7; strain 3D7-C9-WT (parent of PfATP4 Mut3), read-out: 3D7-C9-WT (PARENT) Average EC50): 35 nM

**Q.** What does the source list for `O=C1C(O)=C([C@H]2CC[C@H](c3ccc(Cl)cc3)CC2)C(=O)c2ccccc21` [atovaquone, reference compound]?
**A.** EC50 [4]: 0.419 ± 0.044 nM; EC50 (Hepatocyte toxicity): 7720 ± 1370 nM; EC50 [5]: > 12500 nM; rate of action of comparator antimalarials (P. falciparum [1]): slow

**Q.** With `OC(c1cc(C(F)(F)F)nc2c(C(F)(F)F)cccc12)C1CCCCN1` (stereo not drawn) [mefloquine] as the compound, how does the “reduction in EC50 compared with parental line 3D7” value [6] read?
**A.** 10 fold

**Q.** Which results are given for `COc1ccc(C[C@H](N)C(=O)N[C@H]2[C@@H](O)[C@H](n3cnc4c(N(C)C)ncnc43)O[C@@H]2CO)cc1` [puromycin, reference compound]?
**A.** EC50 [4]: 32.7 ± 29.7 nM; EC50 (Hepatocyte toxicity): 254 ± 36.6 nM; EC50 [5]: 610 ± 110 nM

**Q.** For `CCN(CC)CCCC(C)Nc1ccnc2cc(Cl)ccc12` (stereo not drawn) [chloroquine], which “rate of action of comparator antimalarials” value (P. falciparum [1]) is on record?
**A.** fast
